In patent US8791264B2 (Purdue Pharma L.P., priority 2006, dated 2014) one finds IC50 data, which are given here for eleven compounds.

Assay [1] has as its target T1, N-type calcium channel (NTCC) (Homo sapiens, UniProt Q00975).
T1 construct: host or cells: IMR32 cells differentiated with dibutyryl cAMP and bromodeoxyuridine
The assay can be described thus: FLIPR calcium mobilization assay for N-type calcium channel. Type of assay: cell-based. The following applies: calcium mobilization in vitro assay; differentiated IMR32 cells. The gist of the method: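 Differentiated IMR32 cells (8 days, dibutyryl cAMP and BrdU) loaded with 3 μM Fluo-4 during 90 mM KCl pre-stimulation, with compound at about 846 pM to 17 μM plus 5 μM nitrendipine. After washes in compound, FLIPR read basal fluorescence 315 s, then 45 s after KCl addition (final 90 mM).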

In assay [2] the target is T2, recombinant rat L-type calcium channel (LTCC) subunits (α1c, α2δ, and β1) (Rattus norvegicus, UniProt P22002).
T2 construct: expressed in transfected cells
The assay can be described thus: FLIPR calcium mobilization assay for L-type calcium channel. It counts as cell-based. The settings on record: calcium mobilization in vitro assay; HEK293 cells expressing rat LTCC. As for the experimental part: Recombinant human embryonal kidney cells (HEK293, ATCC) stably transfected with either N-type calcium channel (NTCC) subunits (α1b, α2δ, and ⊖3) or L-type calcium channel (LTCC) subunits (α1, α2δ, and β1) were routinely cultured in growth medium consisting of Dulbecco's Modified Eagles Medium containing 10% FBS, 100 U/mL penicillin, 100 μg/mL streptomycin, 4 mM L-glutamine, 500 μg/mL geneticin (G418), 20 μg/mL Blasticidin S (InVivogen, San Diego, Calif.) and 500 μg/mL zeocin (InVivogen).
FLIPR Calcium Mobilization Assay for L-Type Calcium Channel.
One day prior to performing this assay, HEK293 cells stably expressing recombinant rat L-type calcium channel (LTCC) subunits (α1c, α2δ, and β1) were trypsinized, then seeded on poly-D-lysine-coated 96-well clear-bottom black plates (Becton Dickinson, Franklin Lakes, N.J.) at 75,000 cells/well. On the day of the assay, the plates were washed with LTCC wash buffer (127 mM NaCl, 2 mM MgCl2, 700 μM NaH2PO4, 5 mM CaCl2, 5 mM NaHCO3, 8 mM HEPES, 10 mM glucose, pH 7.4), then loaded with 0.1 mL of LTCC wash buffer containing Fluo-4 (3 μM final concentration, Molecular Probes, Eugene, Oreg.). After 1 hour, the cells were washed with 0.1 mL LTCC wash buffer and resuspended in 0.05 mL LTCC assay buffer (same composition as LTCC wash buffer). Plates were then transferred to a FLIPR^96 for assay. The FLIPR measured basal Fluo-4 fluorescence for 15 seconds, then is added 0.05 mL of each compound tested diluted in LTCC assay buffer at final concentrations ranging from about 846 pM to about 17 μM. Fluo-4 fluorescence was then measured for 5 minutes. 0.1 mL KCl agonist dissolved in LTCC assay buffer was then added to the cells to produce a final concentration of 90 mM KCl, and fluorescence was measured for another 45 seconds. Data were collected over the entire time course and analyzed using Excel, Graph Pad Prism, or an in-house regression analysis software.

The structures appear in SMILES notation.

T1 sequence (Q00975 whole entry): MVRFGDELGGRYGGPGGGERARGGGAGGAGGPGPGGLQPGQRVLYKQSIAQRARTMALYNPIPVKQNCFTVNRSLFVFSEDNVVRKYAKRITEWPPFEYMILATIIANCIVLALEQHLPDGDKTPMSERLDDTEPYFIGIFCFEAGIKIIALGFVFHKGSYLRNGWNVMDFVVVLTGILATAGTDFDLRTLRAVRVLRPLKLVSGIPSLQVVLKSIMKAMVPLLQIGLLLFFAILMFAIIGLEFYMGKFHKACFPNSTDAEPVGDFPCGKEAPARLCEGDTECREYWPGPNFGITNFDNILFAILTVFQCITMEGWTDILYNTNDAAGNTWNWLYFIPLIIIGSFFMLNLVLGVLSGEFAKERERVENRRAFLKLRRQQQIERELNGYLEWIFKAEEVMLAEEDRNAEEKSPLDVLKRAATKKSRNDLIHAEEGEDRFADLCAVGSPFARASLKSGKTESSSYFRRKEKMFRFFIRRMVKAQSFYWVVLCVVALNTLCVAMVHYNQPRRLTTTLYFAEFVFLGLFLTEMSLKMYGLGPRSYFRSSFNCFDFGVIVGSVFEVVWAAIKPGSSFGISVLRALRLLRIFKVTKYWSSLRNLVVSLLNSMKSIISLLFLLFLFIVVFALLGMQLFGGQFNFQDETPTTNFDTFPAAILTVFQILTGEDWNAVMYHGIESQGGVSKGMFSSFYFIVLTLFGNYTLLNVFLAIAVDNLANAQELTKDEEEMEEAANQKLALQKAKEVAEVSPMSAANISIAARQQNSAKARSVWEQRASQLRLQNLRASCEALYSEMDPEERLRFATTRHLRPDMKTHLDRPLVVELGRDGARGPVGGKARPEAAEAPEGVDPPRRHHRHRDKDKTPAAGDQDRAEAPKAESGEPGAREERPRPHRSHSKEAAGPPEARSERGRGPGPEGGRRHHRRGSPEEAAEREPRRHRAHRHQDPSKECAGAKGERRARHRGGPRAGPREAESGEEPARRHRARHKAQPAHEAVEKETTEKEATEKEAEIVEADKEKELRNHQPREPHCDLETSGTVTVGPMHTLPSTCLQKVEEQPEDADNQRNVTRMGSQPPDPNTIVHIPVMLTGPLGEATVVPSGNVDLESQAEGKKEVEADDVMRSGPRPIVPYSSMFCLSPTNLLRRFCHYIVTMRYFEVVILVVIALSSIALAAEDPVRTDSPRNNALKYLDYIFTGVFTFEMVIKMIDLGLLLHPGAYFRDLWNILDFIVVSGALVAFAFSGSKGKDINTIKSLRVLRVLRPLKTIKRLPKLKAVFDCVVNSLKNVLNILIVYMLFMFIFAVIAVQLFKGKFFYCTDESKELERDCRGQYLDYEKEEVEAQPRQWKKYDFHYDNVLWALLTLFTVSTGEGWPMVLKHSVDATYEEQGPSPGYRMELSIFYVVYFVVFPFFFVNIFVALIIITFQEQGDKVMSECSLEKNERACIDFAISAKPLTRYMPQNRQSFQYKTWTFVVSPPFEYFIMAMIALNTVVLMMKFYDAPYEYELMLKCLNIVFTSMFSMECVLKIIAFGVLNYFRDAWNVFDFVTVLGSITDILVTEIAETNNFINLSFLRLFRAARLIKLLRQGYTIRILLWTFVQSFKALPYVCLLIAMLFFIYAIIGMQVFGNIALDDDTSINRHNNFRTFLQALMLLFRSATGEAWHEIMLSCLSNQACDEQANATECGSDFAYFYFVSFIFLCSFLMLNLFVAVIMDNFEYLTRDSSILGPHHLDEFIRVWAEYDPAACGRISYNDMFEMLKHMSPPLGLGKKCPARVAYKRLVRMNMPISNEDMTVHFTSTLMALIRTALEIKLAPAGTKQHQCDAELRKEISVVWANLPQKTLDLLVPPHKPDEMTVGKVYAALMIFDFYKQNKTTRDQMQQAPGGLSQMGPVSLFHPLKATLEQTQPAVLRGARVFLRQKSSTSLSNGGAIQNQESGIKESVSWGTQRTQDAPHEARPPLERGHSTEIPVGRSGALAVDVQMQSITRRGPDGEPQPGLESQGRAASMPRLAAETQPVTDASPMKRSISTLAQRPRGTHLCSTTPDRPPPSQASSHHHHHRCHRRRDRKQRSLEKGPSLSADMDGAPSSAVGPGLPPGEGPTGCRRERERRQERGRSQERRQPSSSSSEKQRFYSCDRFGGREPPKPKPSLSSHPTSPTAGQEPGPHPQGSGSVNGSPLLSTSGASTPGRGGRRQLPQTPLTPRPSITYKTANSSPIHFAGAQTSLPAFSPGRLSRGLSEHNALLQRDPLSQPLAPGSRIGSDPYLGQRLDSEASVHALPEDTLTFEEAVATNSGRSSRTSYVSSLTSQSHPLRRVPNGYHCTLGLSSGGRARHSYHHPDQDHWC
T1 sequence (P54289 25-956 partner limits assumed): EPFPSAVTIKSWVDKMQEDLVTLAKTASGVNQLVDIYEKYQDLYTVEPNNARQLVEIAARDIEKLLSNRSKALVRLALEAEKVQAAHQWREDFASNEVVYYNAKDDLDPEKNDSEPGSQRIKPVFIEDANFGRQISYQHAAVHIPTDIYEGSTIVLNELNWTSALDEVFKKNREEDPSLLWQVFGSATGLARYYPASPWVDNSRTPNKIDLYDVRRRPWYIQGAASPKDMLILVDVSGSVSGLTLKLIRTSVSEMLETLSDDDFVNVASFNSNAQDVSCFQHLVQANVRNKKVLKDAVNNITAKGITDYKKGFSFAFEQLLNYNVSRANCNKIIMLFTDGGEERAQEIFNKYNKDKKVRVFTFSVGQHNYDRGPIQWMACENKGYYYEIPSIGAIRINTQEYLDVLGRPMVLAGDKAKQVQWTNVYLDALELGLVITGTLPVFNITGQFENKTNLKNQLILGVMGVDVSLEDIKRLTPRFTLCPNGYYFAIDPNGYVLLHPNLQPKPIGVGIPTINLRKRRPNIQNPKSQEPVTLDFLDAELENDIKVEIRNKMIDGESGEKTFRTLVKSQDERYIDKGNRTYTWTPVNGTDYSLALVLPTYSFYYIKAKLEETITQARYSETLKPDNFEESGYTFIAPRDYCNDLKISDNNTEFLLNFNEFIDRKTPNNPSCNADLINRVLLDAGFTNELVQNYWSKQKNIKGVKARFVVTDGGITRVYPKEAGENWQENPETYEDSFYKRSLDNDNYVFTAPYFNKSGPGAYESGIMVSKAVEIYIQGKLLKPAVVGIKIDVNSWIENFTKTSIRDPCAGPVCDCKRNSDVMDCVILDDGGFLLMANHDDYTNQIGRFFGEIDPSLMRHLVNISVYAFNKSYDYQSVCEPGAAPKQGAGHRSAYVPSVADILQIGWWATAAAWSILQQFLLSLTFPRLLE
T1 sequence (P54289 957-1103 partner limits assumed): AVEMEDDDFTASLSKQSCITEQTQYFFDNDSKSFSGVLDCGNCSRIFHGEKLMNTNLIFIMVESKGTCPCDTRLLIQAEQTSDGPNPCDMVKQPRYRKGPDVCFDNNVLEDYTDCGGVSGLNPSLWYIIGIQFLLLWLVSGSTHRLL
T1 sequence (P54284 whole entry partner): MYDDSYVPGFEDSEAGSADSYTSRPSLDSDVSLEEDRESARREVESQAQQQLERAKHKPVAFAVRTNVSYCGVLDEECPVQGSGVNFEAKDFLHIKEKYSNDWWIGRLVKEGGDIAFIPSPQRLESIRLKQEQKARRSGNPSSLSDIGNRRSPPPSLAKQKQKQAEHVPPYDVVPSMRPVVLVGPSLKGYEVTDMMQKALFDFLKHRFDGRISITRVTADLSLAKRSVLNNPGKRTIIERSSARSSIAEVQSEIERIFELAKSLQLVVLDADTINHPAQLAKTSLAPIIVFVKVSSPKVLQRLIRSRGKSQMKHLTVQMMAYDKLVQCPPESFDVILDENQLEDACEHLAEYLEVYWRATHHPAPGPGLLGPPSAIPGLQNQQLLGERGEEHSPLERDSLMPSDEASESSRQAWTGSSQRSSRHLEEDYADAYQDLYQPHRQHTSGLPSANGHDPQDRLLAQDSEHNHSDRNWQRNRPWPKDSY

For the compound `Cc1cccc(C)c1NC(=O)CN1CCC(N(C2CC2)S(=O)(=O)c2cccc(C(F)(F)F)c2)CC1` [Compound 58, 2-{4-[Cyclopropyl-(3-trifluoromethylbenzenesulfonyl)-amino]-piperidin-1-yl}-N-(2,6-dimethylphenyl)acetamide], the half-inhibitory concentration (IC50) turned out to be 310 nM in assay [1] and 5920 nM in assay [2].
Taken in the same sequence, the figures for `CC(C)c1ccc(NC(=O)CN2CCC(N(C3CC3)S(=O)(=O)c3cccc(C(F)(F)F)c3)CC2)cc1` [Compound 59, 2-{4-[Cyclopropyl-(3-trifluoromethylbenzenesulfonyl)-amino]-piperidin-1-yl}-N-(4-isopropylphenyl)acetamide] were 420 nM and 10000 to 20000 nM.
Taken in the same sequence, the figures for `CCN(CC)C(=O)CN1CCC(N(C2CC2)S(=O)(=O)c2cccc(C(F)(F)F)c2)CC1` [Compound 38, 2-{4-[Cyclopropyl-(3-trifluoromethylbenzenesulfonyl)amino]-piperidin-1-yl}-N,N-diethylacetamide] were 840 nM and 3260 nM.
Taken in the same sequence, the figures for `CC(C)C[C@H](NCc1ccccc1)C(=O)N1CCC(N(C(C)C)S(=O)(=O)c2cccc(C(F)(F)F)c2)CC1` [Compound 88b, (S)—N-[1-(2-Benzylamino-4-methylpentanoyl)-piperidin-4-yl]-N-isopropyl-3-trifluoromethylbenzenesulfonamide] were 300 nM and over 20000 nM.
In the case of `CC(C)CC(CC(=O)N1CCC(N(C(C)C)S(=O)(=O)c2cccc(C(F)(F)F)c2)CC1)NCCOCc1ccccc1` (stereo not shown) [N-{1-[3-(2-benzyloxy-ethylamino)-5-methyl-hexanoyl]-piperidin-4-yl}-N-isopropyl-3-trifluoromethyl-benzenesulfonamide], the IC50 was determined as 220 nM in assay [1] and 4480 nM in assay [2].
Taken in the same sequence, the figures for `N#Cc1cc(F)cc(NC(=O)CN2CCC(N(C3CC3)S(=O)(=O)c3cccc(C(F)(F)F)c3)CC2)c1` [Compound 81, N-(3-Cyano-5-fluorophenyl)-2-{4-[cyclopropyl-(3-trifluoromethyl-benzenesulfonyl)amino]-piperidin-1-yl}-acetamide] were 360 nM and over 20000 nM.
The corresponding values for `COc1ccc(CNCC(=O)N2CCC(N(C(C)C)S(=O)(=O)c3cccc(C(F)(F)F)c3)CC2)cc1` [Compound 94, N-Isopropyl-N-{1-[2-(4-methoxy-benzylamino)acetyl]-piperidin-4-yl}-3-trifluoromethylbenzenesulfonamide] are 700 nM and 10000 to 20000 nM.
Taken in the same sequence, the figures for `CN(C1CCN(C(=O)Nc2cc(C(F)(F)F)cc(C(F)(F)F)c2)CC1)S(=O)(=O)c1ccccc1` [Compound 112, (4-Benzenesulfonyl-methyl-amino)-piperidine-1-carboxylic acid (3,5-bis-trifluoromethylphenyl)-amide] were 640 nM and over 20000 nM.
On to `CC(C)N(C1CCN(C(=O)[C@H](Cc2ccccc2)NCC2CCCCC2)CC1)S(=O)(=O)c1cccc(C(F)(F)F)c1` [Compound 88d, (S)—N-{1-[2-(Cyclohexylmethyl-amino)-3-phenyl-propionyl]-piperidin-4-yl}-N-isopropyl-3-trifluoromethyl-benzenesulfonamide], for which the figures for the IC50 in assay [1] and in assay [2] were 100 nM and 3580 nM, respectively.
Taken in the same sequence, the figures for `O=C(CN1CCC(N(C2CC2)S(=O)(=O)c2cccc(C(F)(F)F)c2)CC1)Nc1ccc(F)c(C(F)(F)F)c1` [Compound 71, 2-{4-[Cyclopropyl-(3-trifluoromethylbenzenesulfonyl)amino]-piperidin-1-yl}-N-(4-fluoro-3-trifluoromethylphenyl)-acetamide] were 610 nM and over 20000 nM.
Take `O=C(CN1CCC(N(C2CC2)S(=O)(=O)c2cccc(C(F)(F)F)c2)CC1)NCc1cc(C(F)(F)F)cc(C(F)(F)F)c1` [Compound 64, N-(3,5-Bis-trifluoromethylbenzyl)-2-{4-[cyclopropyl-(3-trifluoromethylbenzenesulfonyl)amino]-piperidin-1-yl}-acetamide]: the IC50 in assay [1] was 220 nM; in assay [2], over 20000 nM.
